From a melting point compilation (Tetko et al.; mined from patent text by program, amines drawn as free bases though some values may be those of a salt)

SMILES | melting point
COc1cccc(OC)c1CN1C(=O)C2CCCN2c2ncccc21 (stereo not drawn) | 200 to 202 °C
CSCCCN1C(=O)C(NC(=O)c2cc3ccccc3[nH]2)N=C(c2ccccc2)c2ccccc21 (racemic) | 216 to 221 °C
CC(C)(S)[C@@H](NC(=O)c1ccc(Br)cc1)C(=O)O | 176 °C
CCOC(=O)c1ccccc1-n1nc(C(=O)OCC)c2csc(N)c2c1=O | 176 to 178 °C
COc1ccc(NC(C)C)c(S)c1 | 68 to 69 °C
N#Cc1ccc(SC2SCC(O)C(O)C2O)cc1 (stereo not drawn) | 175 °C
CCOC(=O)/C=C/c1cc(O)ccc1Br | 96 to 98 °C
Cc1ccc(-c2cc(C(N)=O)c(N)s2)cc1 | 228 to 230 °C
CN(C)CCOC(=O)c1cnn2c(-c3cccc(C(F)(F)F)c3)ccnc12 | 119 to 120 °C
Cc1coc(C)c1-c1nc2ccc(C(=O)c3ccccc3)cc2[nH]1 | 203 to 208 °C
NC(=S)CCCc1ccc(Br)cc1 | 104 to 105 °C
C=CC(=O)NC(C)c1ccc(Cl)cc1 (stereo not drawn) | 103 to 104 °C
CCCN(CCC)CC1CCCCN1CCNC(=O)N1c2ccccc2NC(=O)c2cccnc21 (stereo not drawn) | 149 to 151 °C
CCNC(=O)Nc1nc2nc(NCCN(CC)CC)ncc2cc1-c1c(Cl)cccc1Cl | 86.5 to 89.5 °C
CN1C(=S)NN2CCCC21c1ccc(Cl)cc1 (stereo not drawn) | 159 to 161 °C
COc1ccc2[nH]c(=O)c(-c3nnnn3Cc3cccc(OCc4ccc5ccccc5n4)c3)cc2c1 | 215 to 217 °C
O=C(O)CCCCCNC(=O)Cc1ccsc1 | 78.6 to 79.5 °C
CC#CCOc1ccc(S(=O)(=O)N(C)C(C(=O)NO)c2ccc(OCCCNS(C)(=O)=O)cc2)cc1 (stereo not drawn) | 65 to 70 °C
Cc1c(C)c2c(c(C)c1NC(=O)CC(C)(C)C)C(c1ccc(C(C)C)c(O)c1)CO2 (stereo not drawn) | 220 to 221 °C
COC(=O)c1ccc(C=CC(=O)N2CCc3c([nH]c4ccccc34)C2c2ccc3c(c2)CCO3)cc1 (stereo not drawn) | 186 °C
CC(=O)Nc1ccc(I)cc1C | 182 to 183 °C
Cc1ncn(Nc2cccc(Cl)c2)c1-c1cccc(Br)c1 | 164 °C
Cc1[nH]c2ccccc2c1CCCN1CCC(c2noc3cc(Cl)ccc23)CC1 | 108 to 110 °C
Nc1nc(N)nc(-c2ccc(Sc3ccccc3)cc2)n1 | 213 to 215 °C
CCCCN(CCCC)c1ccc(C=CC2=CC(=CC=CC3=C(C#N)C(=C(C#N)C#N)OC3(C)C(F)(F)F)CC(C)(C)C2)c(OC)c1 (stereo not drawn) | 196 to 201 °C

SMILES | melting point
Cc1ccc(F)c(CSc2nc(N[C@H](C)CO)c3ncc(=O)[nH]c3n2)c1 | 202 to 204 °C
NC(=NO)c1nc(Cl)c(Cl)[nH]1 | 270 to 275 °C
COc1cc(NC2CCCC2)n2nc(-c3ccc(F)cc3)c(-c3ccnc(NC4CCCC4)n3)c2c1 | 167 to 169 °C
O=C(O)[C@H](Cc1cccc(C(F)(F)F)c1)[C@@H](O)c1ccc(F)cc1 (racemic) | 116 to 118 °C
O=c1[nH]c(=O)n(C2CC(Br)C(CBr)O2)cc1C=CBr (stereo not drawn) | 153 °C
CCC(CC)N1CCC(CNc2ccc(Cl)cc2C(=O)Nc2ccc(Cl)cn2)CC1 | 136 to 138 °C
O=C1Cn2c(c(Cl)c3ccccc32)-c2cc(Cl)ccc2N1 | 267 to 271 °C
O=C(O)c1cn(O)c2ccc3[nH]c(=O)sc3c2c1=O | > 300 °C
OCCCCCCCCCCCCCCC(O)CNCCO (stereo not drawn) | 103 °C
CC1(C)CN(CCN2CCN(c3cccc(Cl)c3)C2=O)C1 | 84 to 85 °C
COC(=O)NNC(=O)c1ccc(Cl)cc1 | 160 °C
Cc1c(-c2ccccc2)c(C2=CC(N(C)C)CC2)c2oc(C3CC3)nc2c1C#N (stereo not drawn) | 144 to 146 °C
CCCN(C(=O)C=C(C)C)c1cccc(Br)c1 | 50 to 51 °C
CC(C)NCC(O)c1cnc(N)c(Cl)c1 (stereo not drawn) | 146 °C
CC1(C)OC(=O)Nc2ccc(-c3cccc(C#N)c3)cc21 | 236 to 237 °C
CCC(=O)Cc1ccc(C(=O)Nc2ccc3cc(C(C)N4CCCC4)cnc3c2C)cc1 (stereo not drawn) | 123 to 127 °C
O=C(O)CSCC(Cc1ccccc1)NCCS (stereo not drawn) | 201 °C
OCc1nn(-c2ccc(Cl)cc2)c2c1CCCC2 | 125 to 126 °C
O=C(O)c1ccc(-n2cnnc2)cc1 | > 300 °C
OCCCSc1csc2ccccc12 | 154 to 155 °C
COCCOc1cc(Cc2cnc(N)nc2N)cc2c1NCCC2 | 149 to 151 °C
COc1cc(I)c(Oc2cnc(N)nc2N)cc1I | 136 to 138 °C
C[C@H](NC(=O)Cc1ccccc1)C(=O)O | 102 to 104 °C
O=C(c1ccccc1)C(O)C1OC(n2cc(F)c(=O)[nH]c2=O)C(O)(C(=O)c2ccccc2)C1(O)C(=O)c1ccccc1 (stereo not drawn) | 210 to 214 °C
CCC1(CCCCCl)C(=O)Nc2c(C)cccc21 (stereo not drawn) | 112 to 113 °C

SMILES | melting point
CC1(C)C(=O)N(c2ccnc(NC(=O)NCc3ccccn3)c2)c2ccccc21 | 191 to 192 °C
CCCCN(c1cccc(-c2ccnc3c([N+](=O)[O-])cnn23)c1)S(=O)(=O)c1ccc(OC)cc1 | 189 to 190 °C
COc1ccc(-n2nc(OC(C)C)cc2-c2ccc(OCCO)cc2)cn1 | 74 to 75 °C
CC(C)COC(=O)Nc1cccc(-c2ccnc3c(Br)cnn23)c1 | 90 to 92 °C
CC(C)=C1OC(=O)N(c2ccc(C)cc2)C1=O | 136 °C
CC(C)N1CC(C(=O)c2c[nH]c(Cc3ccc(F)cc3)n2)=C(O)C1=O | 220 °C
CCCS(=O)(=O)c1cc(C(=O)CCC(=O)c2cc(OC)c(OC)c(OC)c2)cc(OC)c1OCc1ccccc1 | 148 to 150 °C
Cc1cccc(NC(=O)NCC(=O)N(CC(=O)N(C)c2ccc(F)cc2)c2ccccc2)c1 | 135 °C
CC(C)(C)n1nc(Cc2ccccc2)c2c(N)nc(-c3ccncc3)nc21 | 188 to 189 °C
CCCC(=O)c1cnc2c(OC)csc2c1Nc1ccc(O)cc1C | 255 to 257 °C
CCOc1cc(N(CC)CC)ccc1C1(c2c(C)n(CC)c3ccccc23)OC(=O)c2ccccc21 (stereo not drawn) | 193 °C
CCCNCC1CCN(c2nc3c(cc2F)c(=O)c(C(=O)O)cn3C2CC2)C1 (stereo not drawn) | 230 to 233 °C
O=C(CN1C(=O)c2ccccc2C1=O)NNC(=O)c1ncn2c1[C@@H]1CCCN1C(=O)c1sccc1-2 | > 260 °C
CCCCOC(=O)[C@H]1CN(c2cc(F)c(N3CCSCC3)c(F)c2)C(=O)O1 | 102 to 103 °C
CN(C)c1ccc(C2SCC(C(=O)O)N2C(=O)OC(C)(C)C)cc1 (mixture of isomers) | 175 °C
CCn1nc(-c2ccc(OC)c(F)c2)c(-c2ccc(OC)c(F)c2)cc1=O | 178 °C
CN(C)c1ccc([N+](=O)[O-])c(CN)c1 | 97 to 98 °C
O=C(O)CCCN(C(=O)c1ccc(Cl)cc1)c1cccc2ccccc12 | 173 to 174 °C
CNC(=O)CCC(=O)c1c(O)cccc1OC | 125 °C
Cc1nc2c(N)nc3c(c2n1CCCCNC(=O)N1CCOCC1)CCCC3 | 134 to 135 °C
Cc1cc(S(N)(=O)=O)ccc1-n1nc(C(F)(F)F)cc1-c1ccc(-c2ccco2)cc1 | 87 to 89 °C
O=C(NCc1ccccc1)c1ccnc(-n2cnn(Cc3ccc(F)cc3)c2=O)c1 | 173 to 175 °C
Cc1c(C(=O)O)cnn1-c1ccc(C(F)(F)F)cc1 | 181 °C
